Source: publication PMC8256334, “Simultaneous Determination of a Novel PD-L1 Inhibitor, IMMH-010, and Its Active Metabolite, YPD-29B, in Rat Biological Matrices by Polarity-Switching Liquid Chromatography-Tandem Mass Spectrometry: Application to ADME Studies” (Frontiers in Pharmacology, 2021)
Where two headings read alike, the source gives them in different places.

Tests used:
[1] = Stability in rat plasma; type: in vitro ADME; settings: for Accuracy (RE, %) / Measured conc.: n = 5
Description: Plasma: IMMH-010 is an ester-containing compound. […] Therefore, heparin sodium and NaF were dissolved with 0.9% w/v sodium chloride to prepare a mixture of 0.5% heparin sodium and 500 mM NaF. All blood was withdrawn into EP tubes containing this mixture (1:9 v/v mixture:blood) followed by plasma separation. The plasma standards for IMMH-010 were prepared at 1, 2, 5, 10, 20, 80, 120 and 200 ng/ml, and those for YPD-29B were prepared at 2.5, 5, 10, 20, 50, 400, 600 and 1,000 ng/ml. QC samples were prepared at 1, 2, 40 and 160 ng/ml for IMMH-010 and 2.5, 5, 200 and 800 ng/ml for YPD-29B.
For short-term and long-term stability, plasma samples were kept at 4°C for 4 h and −20°C for 3 months, respectively. To evaluate freeze-thaw stability, samples were frozen at −20°C for 24 h and thawed at 4°C for three cycles. […] Stability assays of IMMH-010 and YPD-29B were performed at two QC levels (high and low QC) (n = 5).

[2] = Tissue distribution study in rats; type: in vivo, Sprague-Dawley rats; settings: for Kp at 0.25 h / Kp at 0.5 h / Kp at 4 h: female, Sprague-Dawley, rat, oral, i.g. 10 mg/kg IMMH-010 maleate, read-out: T/P (tissue-to-plasma partition)
Description: Female Sprague-Dawley rats (200 ± 20 g, Vital River, Beijing, China) were kept in standard environmental conditions. Rats were fasted overnight with free access to water and randomly assigned to different groups before the experiments. All animal protocols were approved by the Institute Animal Care and Welfare Committee of the Institute of Materia Medica, Chinese Academy of Medical Sciences and Peking Union Medical College.
The tissue distribution study was performed 15 min, 30 min, 4 h and 12 h after i. g. administration of 10 mg/kg IMMH-010 maleate. Blood was collected and centrifuged at 5,000 rpm for 10 min. The heart, liver, brain, spleen, lung, kidney, adrenal gland, thymus, and lymph were harvested immediately. The tissues were washed with normal saline and blotted dry with filter paper. All samples were stored at -20°C before analysis.

[3] = prepared rat plasma samples, at 15°C in auto-sampler (24 h), spiked 2 ng/ml IMMH-010, 5 ng/ml YPD-29B
[4] = prepared rat plasma samples, at 15°C in auto-sampler (24 h), spiked 160 ng/ml IMMH-010, 800 ng/ml YPD-29B
[5] = prepared rat plasma samples, at 15°C in auto-sampler (48 h), spiked 2 ng/ml IMMH-010, 5 ng/ml YPD-29B
[6] = prepared rat plasma samples, at 15°C in auto-sampler (48 h), spiked 160 ng/ml IMMH-010, 800 ng/ml YPD-29B
[7] = rat plasma, 4°C (4 h), spiked 2 ng/ml IMMH-010, 5 ng/ml YPD-29B
[8] = rat plasma, 4°C (4 h), spiked 160 ng/ml IMMH-010, 800 ng/ml YPD-29B
[9] = rat plasma, stored at −20°C (3 months), spiked 2 ng/ml IMMH-010, 5 ng/ml YPD-29B
[10] = rat plasma, stored at −20°C (3 months), spiked 160 ng/ml IMMH-010, 800 ng/ml YPD-29B
[11] = rat plasma, three freeze–thaw cycles, spiked 2 ng/ml IMMH-010, 5 ng/ml YPD-29B
[12] = rat plasma, three freeze–thaw cycles, spiked 160 ng/ml IMMH-010, 800 ng/ml YPD-29B

Question: For `O=C(O)[C@H](CO)NCc1cc(Cl)c(OCc2cccc(-c3ccccc3)c2Br)cc1OCc1cccnc1` [YPD-29B], which “Accuracy (RE, %)” value [1, 3] is on record?
Answer: −1.6%

Question: What about the Measured conc. [1, 3] of the same compound?
Answer: 4.92 ± 0.25 ng/mL

Question: What about the “Accuracy (RE, %)” value [1, 4] of the same compound?
Answer: 5.6%

Question: And the Measured conc. [1, 4]?
Answer: 845 ± 13 ng/mL

Question: And the “Accuracy (RE, %)” value [1, 5]?
Answer: −12.2%

Question: What about the Measured conc. [1, 5] of the same compound?
Answer: 4.39 ± 0.19 ng/mL

Question: What about the “Accuracy (RE, %)” value [1, 6] of the same compound?
Answer: −1.1%

Question: What about the Measured conc. [1, 6] of the same compound?
Answer: 791 ± 17 ng/mL

Question: What about the “stability during the sample preparation, storage and analysis” value ([1]; rat plasma: 4°C 4 h, −20°C 3 months, three freeze-thaw cycles, autosampler 10°C 48 h) of the same compound?
Answer: stable

Question: What about the “Accuracy (RE, %)” value [1, 7] of the same compound?
Answer: −4.8%

Question: What about the Measured conc. [1, 7] of the same compound?
Answer: 4.76 ± 0.12 ng/mL

Question: What about the “Accuracy (RE, %)” value [1, 8] of the same compound?
Answer: 4.0%

Question: What about the Measured conc. [1, 8] of the same compound?
Answer: 832 ± 8 ng/mL

Question: And the “Accuracy (RE, %)” value [1, 9]?
Answer: −2.6%

Question: What about the Measured conc. [1, 9] of the same compound?
Answer: 4.87 ± 0.50 ng/mL

Question: What about the “Accuracy (RE, %)” value [1, 10] of the same compound?
Answer: −6.5%

Question: What about the Measured conc. [1, 10] of the same compound?
Answer: 748 ± 3 ng/mL

Question: And the “Accuracy (RE, %)” value [1, 11]?
Answer: −6.2%

Question: What about the Measured conc. [1, 11] of the same compound?
Answer: 4.69 ± 0.21 ng/mL

Question: What about the “Accuracy (RE, %)” value [1, 12] of the same compound?
Answer: 3.9%

Question: What about the Measured conc. [1, 12] of the same compound?
Answer: 831 ± 51 ng/mL

Question: And the “concentration in adrenal gland” value ([2]; adrenal gland, time 0.25 (15 min) after i.g. 10 mg/kg IMMH-010 maleate, n = 5)?
Answer: 15.3 ± 10.8 ng/ml or ng/g

Question: What about the “concentration in adrenal gland” value ([2]; adrenal gland, time 0.5 (30 min) after i.g. 10 mg/kg IMMH-010 maleate, n = 5) of the same compound?
Answer: 39.7 ± 45.3 ng/ml or ng/g

Question: What about the “concentration in adrenal gland” value ([2]; adrenal gland, time 4 (4 h) after i.g. 10 mg/kg IMMH-010 maleate, n = 5) of the same compound?
Answer: BLQ

Question: And the concentration in brain ([2]; time 0.25 (15 min) after i.g. 10 mg/kg IMMH-010 maleate, n = 5)?
Answer: BLQ

Question: And the concentration in brain ([2]; time 0.5 (30 min) after i.g. 10 mg/kg IMMH-010 maleate, n = 5)?
Answer: BLQ

Question: And the concentration in brain ([2]; time 4 (4 h) after i.g. 10 mg/kg IMMH-010 maleate, n = 5)?
Answer: BLQ

Question: What about the Kp at 0.25 h ([2]; adrenal gland) of the same compound?
Answer: 0.5

Question: What about the Kp at 0.5 h ([2]; adrenal gland) of the same compound?
Answer: 0.7

Question: And the Kp at 0.25 h ([2]; heart)?
Answer: 0.5

Question: And the Kp at 0.5 h ([2]; heart)?
Answer: 0.7

Question: And the Kp at 0.25 h ([2]; kidney)?
Answer: 2

Question: What about the Kp at 0.5 h ([2]; kidney) of the same compound?
Answer: 4.8

Question: What about the Kp at 4 h ([2]; kidney) of the same compound?
Answer: 34.6

Question: And the Kp at 0.25 h ([2]; liver)?
Answer: 43.8

Question: And the Kp at 0.5 h ([2]; liver)?
Answer: 58.2

Question: And the Kp at 4 h ([2]; liver)?
Answer: 40.1

Question: What about the Kp at 0.25 h ([2]; lung) of the same compound?
Answer: 1.1

Question: What about the Kp at 0.5 h ([2]; lung) of the same compound?
Answer: 2

Question: And the Kp at 4 h ([2]; lung)?
Answer: 4.4

Question: And the Kp at 0.25 h ([2]; lymph)?
Answer: 1.6

Question: What about the Kp at 0.5 h ([2]; lymph) of the same compound?
Answer: 6.8

Question: And the Kp at 4 h ([2]; lymph)?
Answer: 9.1

Question: What about the Kp at 0.25 h ([2]; spleen) of the same compound?
Answer: 0.5

Question: And the Kp at 0.5 h ([2]; spleen)?
Answer: 0.9

Question: What about the Kp at 0.5 h ([2]; thymus) of the same compound?
Answer: 0.05

Question: What about the Kp at 4 h ([2]; thymus) of the same compound?
Answer: 0.5

Question: And the concentration in heart ([2]; heart, time 0.25 (15 min) after i.g. 10 mg/kg IMMH-010 maleate, n = 5)?
Answer: 17.3 ± 11.9 ng/ml or ng/g
